Data: the kinase profiling compilation of Christmann-Franck et al. (2016)

Assays:
Assay in all cases: KINOMEscan competition binding
Conditions in all cases: compound 10.0 µM
DAPK2 (human) = DAPK2 (human) (UniProt Q9UIK4)
PHKG2 (human) = PHKG2 (human) (UniProt P15735)
TGFBR2 (human) = TGFBR2 (human) (UniProt P37173)
[1] = test system: KIT (human), P10721 [V559D/T670I]
PRKD1 (human) = PRKD1 (human) (UniProt Q15139)
HIPK1 (human) = HIPK1 (human) (UniProt Q86Z02)
[2] = test system: EGFR (human), P00533 [747-751 del / S ins]
CDK16 (human) = CDK16 (human) (UniProt Q00536)
STK33 (human) = STK33 (human) (UniProt Q9BYT3)
CLK3 (human) = CLK3 (human) (UniProt P49761)
CSNK2A1 (human) = CSNK2A1 (human) (UniProt P68400)
TAOK1 (human) = TAOK1 (human) (UniProt Q7L7X3)
MYLK (human) = MYLK (human) (UniProt Q15746)
NEK2 (human) = NEK2 (human) (UniProt P51955)
RIPK2 (human) = RIPK2 (human) (UniProt O43353)
CDK7 (human) = CDK7 (human) (UniProt P50613)
MINK1 (human) = MINK1 (human) (UniProt Q8N4C8)
Chain of MINK1 (human) (Q8N4C8 whole entry, looked up): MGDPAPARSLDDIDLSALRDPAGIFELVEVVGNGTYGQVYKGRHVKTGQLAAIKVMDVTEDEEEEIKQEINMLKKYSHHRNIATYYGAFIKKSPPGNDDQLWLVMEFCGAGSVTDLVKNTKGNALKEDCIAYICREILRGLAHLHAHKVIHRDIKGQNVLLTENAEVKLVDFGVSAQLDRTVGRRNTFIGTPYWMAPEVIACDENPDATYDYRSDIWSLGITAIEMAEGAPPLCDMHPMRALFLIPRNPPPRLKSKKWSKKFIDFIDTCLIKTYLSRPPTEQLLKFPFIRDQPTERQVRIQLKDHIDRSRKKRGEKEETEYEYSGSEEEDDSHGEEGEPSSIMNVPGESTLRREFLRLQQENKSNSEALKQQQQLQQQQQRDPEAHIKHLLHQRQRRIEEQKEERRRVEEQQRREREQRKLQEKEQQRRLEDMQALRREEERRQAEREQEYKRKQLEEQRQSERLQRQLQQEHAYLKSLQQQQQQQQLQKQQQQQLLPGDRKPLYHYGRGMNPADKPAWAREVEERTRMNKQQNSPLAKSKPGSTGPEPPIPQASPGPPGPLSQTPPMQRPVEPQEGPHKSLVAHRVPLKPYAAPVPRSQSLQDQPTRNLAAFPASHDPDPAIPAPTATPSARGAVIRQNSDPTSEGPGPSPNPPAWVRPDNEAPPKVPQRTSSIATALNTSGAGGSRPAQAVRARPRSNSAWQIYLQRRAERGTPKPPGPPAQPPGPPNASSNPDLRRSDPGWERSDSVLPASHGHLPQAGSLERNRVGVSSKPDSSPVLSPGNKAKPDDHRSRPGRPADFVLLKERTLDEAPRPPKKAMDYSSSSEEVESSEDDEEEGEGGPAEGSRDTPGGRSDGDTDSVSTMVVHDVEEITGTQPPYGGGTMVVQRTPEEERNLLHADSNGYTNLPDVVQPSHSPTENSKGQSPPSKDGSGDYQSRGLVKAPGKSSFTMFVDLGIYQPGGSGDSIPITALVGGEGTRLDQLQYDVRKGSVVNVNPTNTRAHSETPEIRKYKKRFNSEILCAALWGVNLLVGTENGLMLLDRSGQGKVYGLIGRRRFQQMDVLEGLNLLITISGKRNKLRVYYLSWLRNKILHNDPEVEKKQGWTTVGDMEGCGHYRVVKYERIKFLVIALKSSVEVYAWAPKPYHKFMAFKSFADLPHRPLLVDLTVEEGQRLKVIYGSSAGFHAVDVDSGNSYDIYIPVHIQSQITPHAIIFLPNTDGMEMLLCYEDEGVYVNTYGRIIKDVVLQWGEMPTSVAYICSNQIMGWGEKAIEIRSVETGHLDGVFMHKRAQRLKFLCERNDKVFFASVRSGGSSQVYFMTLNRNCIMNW

SRPK2 (human) = SRPK2 (human) (UniProt P78362)
MAP2K4 (human) = MAP2K4 (human) (UniProt P45985)
MAP4K2 (human) = MAP4K2 (human) (UniProt Q12851)
DAPK3 (human) = DAPK3 (human) (UniProt O43293)
[3] = test system: FLT3 (human), P36888 [N841I]
PIM3 (human) = PIM3 (human) (UniProt Q86V86)
DMPK (human) = DMPK (human) (UniProt Q09013)
RPS6KA6 KD2 (human) = RPS6KA6 KD2 (human) (UniProt Q9UK32)
STK17A (human) = STK17A (human) (UniProt Q9UEE5)
PIP4K2B (human) = PIP4K2B (human) (UniProt P78356)
Chain of PIP4K2B (human) (P78356 whole entry, looked up): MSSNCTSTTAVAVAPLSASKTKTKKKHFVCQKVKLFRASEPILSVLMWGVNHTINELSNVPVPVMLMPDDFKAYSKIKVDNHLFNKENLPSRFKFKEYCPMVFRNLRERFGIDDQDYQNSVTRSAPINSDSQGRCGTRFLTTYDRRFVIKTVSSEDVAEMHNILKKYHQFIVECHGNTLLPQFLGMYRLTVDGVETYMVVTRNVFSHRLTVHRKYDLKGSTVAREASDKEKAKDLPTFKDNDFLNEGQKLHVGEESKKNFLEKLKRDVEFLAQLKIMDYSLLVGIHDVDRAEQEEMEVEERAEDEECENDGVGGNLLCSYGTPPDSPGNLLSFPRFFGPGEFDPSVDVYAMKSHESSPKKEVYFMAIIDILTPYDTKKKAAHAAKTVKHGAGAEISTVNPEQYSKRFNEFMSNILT

[4] = test system: KIT (human), P10721 [V559D/V654A]
Chain of KIT (human), P10721 [V559D/V654A] (P10721 whole entry V559D/V654A, looked up): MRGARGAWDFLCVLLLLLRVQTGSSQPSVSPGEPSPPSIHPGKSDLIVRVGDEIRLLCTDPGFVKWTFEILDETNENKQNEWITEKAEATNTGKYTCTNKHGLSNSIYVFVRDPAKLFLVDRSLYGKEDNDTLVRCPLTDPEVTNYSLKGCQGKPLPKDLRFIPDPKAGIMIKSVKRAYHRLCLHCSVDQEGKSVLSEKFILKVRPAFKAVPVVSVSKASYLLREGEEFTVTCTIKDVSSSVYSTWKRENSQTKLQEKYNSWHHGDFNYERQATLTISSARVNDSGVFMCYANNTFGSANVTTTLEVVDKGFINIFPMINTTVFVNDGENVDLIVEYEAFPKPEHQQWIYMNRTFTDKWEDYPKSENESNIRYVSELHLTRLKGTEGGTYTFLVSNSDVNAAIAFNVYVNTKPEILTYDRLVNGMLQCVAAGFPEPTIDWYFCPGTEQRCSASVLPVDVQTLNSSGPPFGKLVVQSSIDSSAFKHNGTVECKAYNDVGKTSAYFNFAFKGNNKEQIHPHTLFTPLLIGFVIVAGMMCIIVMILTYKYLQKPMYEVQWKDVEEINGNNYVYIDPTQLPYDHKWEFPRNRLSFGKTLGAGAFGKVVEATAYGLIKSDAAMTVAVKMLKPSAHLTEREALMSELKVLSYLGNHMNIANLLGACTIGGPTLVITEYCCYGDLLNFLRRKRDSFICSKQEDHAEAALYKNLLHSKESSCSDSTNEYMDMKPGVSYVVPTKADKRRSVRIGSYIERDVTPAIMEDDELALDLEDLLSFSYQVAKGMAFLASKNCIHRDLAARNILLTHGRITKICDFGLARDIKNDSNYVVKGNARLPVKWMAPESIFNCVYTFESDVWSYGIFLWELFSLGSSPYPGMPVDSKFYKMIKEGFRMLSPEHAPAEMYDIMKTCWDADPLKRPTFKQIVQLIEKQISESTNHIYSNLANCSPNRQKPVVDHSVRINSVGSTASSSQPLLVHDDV

MKNK1 (human) = MKNK1 (human) (UniProt Q9BUB5)
TNK1 (human) = TNK1 (human) (UniProt Q13470)
MYLK4 (human) = MYLK4 (human) (UniProt Q86YV6)
BMP2K (human) = BMP2K (human) (UniProt Q9NSY1)
ACVR2B (human) = ACVR2B (human) (UniProt Q13705)
DCLK3 (human) = DCLK3 (human) (UniProt Q9C098)
[5] = molecular target: JAK3 JH1 catalytic (human) (UniProt P52333)
[6] = test system: KIT (human), P10721 [D816V]
Chain of KIT (human), P10721 [D816V] (P10721 whole entry D816V, looked up): as the sequence (P10721 whole entry V559D/V654A, looked up) above, with D559V, A654V, D816V counted along it

CLK2 (human) = CLK2 (human) (UniProt P49760)
PIM1 (human) = PIM1 (human) (UniProt P11309)
[7] = test system: KIT (human), P10721 [V559D]
Chain of KIT (human), P10721 [V559D] (P10721 whole entry V559D, looked up): as the sequence (P10721 whole entry V559D/V654A, looked up) above, with A654V counted along it

CSNK1E (human) = CSNK1E (human) (UniProt P49674)
Chain of CSNK1E (human) (P49674 whole entry, looked up): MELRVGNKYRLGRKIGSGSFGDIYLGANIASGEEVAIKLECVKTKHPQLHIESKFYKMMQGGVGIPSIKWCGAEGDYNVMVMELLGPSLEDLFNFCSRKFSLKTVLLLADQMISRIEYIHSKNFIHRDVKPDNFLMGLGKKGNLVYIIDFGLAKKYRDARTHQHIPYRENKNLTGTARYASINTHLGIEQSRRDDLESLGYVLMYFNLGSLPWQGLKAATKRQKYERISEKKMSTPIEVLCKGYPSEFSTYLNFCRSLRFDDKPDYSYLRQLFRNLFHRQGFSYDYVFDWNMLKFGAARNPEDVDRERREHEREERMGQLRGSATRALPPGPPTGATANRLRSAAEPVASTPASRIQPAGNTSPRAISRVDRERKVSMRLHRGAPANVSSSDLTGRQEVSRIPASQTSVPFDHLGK

PIP5K1A (human) = PIP5K1A (human) (UniProt Q99755)
[8] = test system: FLT3 (human), P36888 [D835Y]

Chain of HIPK1 (human) (Q86Z02 whole entry, looked up): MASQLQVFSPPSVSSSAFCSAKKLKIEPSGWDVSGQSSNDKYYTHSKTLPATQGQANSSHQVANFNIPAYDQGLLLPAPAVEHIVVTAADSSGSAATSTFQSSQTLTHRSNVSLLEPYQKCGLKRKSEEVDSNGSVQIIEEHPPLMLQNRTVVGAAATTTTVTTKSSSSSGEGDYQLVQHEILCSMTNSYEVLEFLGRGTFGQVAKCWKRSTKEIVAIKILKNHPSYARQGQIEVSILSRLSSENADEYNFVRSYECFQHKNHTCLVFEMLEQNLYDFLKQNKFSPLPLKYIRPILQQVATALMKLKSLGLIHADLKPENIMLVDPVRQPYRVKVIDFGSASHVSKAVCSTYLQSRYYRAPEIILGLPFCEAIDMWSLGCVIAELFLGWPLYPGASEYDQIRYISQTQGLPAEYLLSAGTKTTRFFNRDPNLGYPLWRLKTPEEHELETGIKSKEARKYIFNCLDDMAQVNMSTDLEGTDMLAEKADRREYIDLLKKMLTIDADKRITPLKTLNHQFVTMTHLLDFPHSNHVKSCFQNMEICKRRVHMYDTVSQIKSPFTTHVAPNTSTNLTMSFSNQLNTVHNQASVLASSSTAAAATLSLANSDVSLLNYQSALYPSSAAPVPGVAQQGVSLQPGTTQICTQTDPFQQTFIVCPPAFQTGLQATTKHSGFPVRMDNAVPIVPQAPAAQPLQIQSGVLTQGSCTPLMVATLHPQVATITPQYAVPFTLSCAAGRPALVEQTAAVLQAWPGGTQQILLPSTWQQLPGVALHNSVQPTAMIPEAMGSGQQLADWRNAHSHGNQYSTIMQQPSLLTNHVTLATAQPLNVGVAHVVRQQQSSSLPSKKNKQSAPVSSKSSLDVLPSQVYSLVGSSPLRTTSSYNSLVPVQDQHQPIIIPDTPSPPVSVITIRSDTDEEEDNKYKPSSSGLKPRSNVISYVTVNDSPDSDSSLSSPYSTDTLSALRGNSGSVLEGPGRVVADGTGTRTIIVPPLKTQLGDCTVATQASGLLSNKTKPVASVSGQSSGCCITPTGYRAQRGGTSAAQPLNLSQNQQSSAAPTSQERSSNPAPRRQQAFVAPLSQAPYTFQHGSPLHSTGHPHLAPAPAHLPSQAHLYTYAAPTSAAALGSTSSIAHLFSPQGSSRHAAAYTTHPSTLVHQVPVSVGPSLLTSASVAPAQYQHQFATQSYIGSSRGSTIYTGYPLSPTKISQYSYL
Chain of DAPK2 (human) (Q9UIK4 whole entry, looked up): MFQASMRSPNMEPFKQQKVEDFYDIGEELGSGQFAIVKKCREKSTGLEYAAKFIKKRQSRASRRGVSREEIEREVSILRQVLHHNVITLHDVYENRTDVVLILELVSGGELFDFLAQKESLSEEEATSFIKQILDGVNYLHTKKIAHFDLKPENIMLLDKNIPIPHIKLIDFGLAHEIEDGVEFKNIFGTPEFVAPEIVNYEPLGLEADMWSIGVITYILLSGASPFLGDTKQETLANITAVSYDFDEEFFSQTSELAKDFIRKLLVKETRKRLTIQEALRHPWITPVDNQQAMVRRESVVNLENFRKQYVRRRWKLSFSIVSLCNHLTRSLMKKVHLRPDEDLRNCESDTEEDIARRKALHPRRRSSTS
Chain of KIT (human), P10721 [V559D/T670I] (P10721 whole entry V559D/T670I, looked up): as the sequence (P10721 whole entry V559D/V654A, looked up) above, with A654V, T670I counted along it

CN1C(=O)c2ccccc2N(C)c2nc(NS(=O)(=O)c3ccc(N)cc3)ncc21
kinase still bound, per cent of control (DAPK2 (human)): 94% | kinase still bound, per cent of control (PHKG2 (human)): 78% | kinase still bound, per cent of control (TGFBR2 (human)): 100% | kinase still bound, per cent of control [1]: 100% | kinase still bound, per cent of control (PRKD1 (human)): 100% | kinase still bound, per cent of control (HIPK1 (human)): 100% | kinase still bound, per cent of control [2]: 99% | kinase still bound, per cent of control (CDK16 (human)): 100% | kinase still bound, per cent of control (STK33 (human)): 100% | kinase still bound, per cent of control (CLK3 (human)): 95% | kinase still bound, per cent of control (CSNK2A1 (human)): 100% | kinase still bound, per cent of control (TAOK1 (human)): 60% | kinase still bound, per cent of control (MYLK (human)): 82% | kinase still bound, per cent of control (NEK2 (human)): 100% | kinase still bound, per cent of control (RIPK2 (human)): 100% | kinase still bound, per cent of control (CDK7 (human)): 91% | kinase still bound, per cent of control (MINK1 (human)): 100% | kinase still bound, per cent of control (SRPK2 (human)): 100% | kinase still bound, per cent of control (MAP2K4 (human)): 61% | kinase still bound, per cent of control (MAP4K2 (human)): 80% | kinase still bound, per cent of control (DAPK3 (human)): 95% | kinase still bound, per cent of control [3]: 90% | kinase still bound, per cent of control (PIM3 (human)): 100% | kinase still bound, per cent of control (DMPK (human)): 86% | kinase still bound, per cent of control (RPS6KA6 KD2 (human)): 96% | kinase still bound, per cent of control (STK17A (human)): 100% | kinase still bound, per cent of control (PIP4K2B (human)): 100% | kinase still bound, per cent of control [4]: 100% | kinase still bound, per cent of control (MKNK1 (human)): 100% | kinase still bound, per cent of control (TNK1 (human)): 100% | kinase still bound, per cent of control (MYLK4 (human)): 100% | kinase still bound, per cent of control (BMP2K (human)): 100% | kinase still bound, per cent of control (ACVR2B (human)): 100% | kinase still bound, per cent of control (DCLK3 (human)): 100% | kinase still bound, per cent of control [5]: 100% | kinase still bound, per cent of control [6]: 100% | kinase still bound, per cent of control (CLK2 (human)): 100% | kinase still bound, per cent of control (PIM1 (human)): 100% | kinase still bound, per cent of control [7]: 100% | kinase still bound, per cent of control (CSNK1E (human)): 100% | kinase still bound, per cent of control (PIP5K1A (human)): 100% | kinase still bound, per cent of control [8]: 87%

COc1cc(N2CCN(C)CC2)ccc1Nc1ncc2c(n1)Nc1ccccc1NC2=O
kinase still bound, per cent of control (DAPK2 (human)): 95% | kinase still bound, per cent of control (PHKG2 (human)): 6.8% | kinase still bound, per cent of control (TGFBR2 (human)): 32% | kinase still bound, per cent of control [1]: 59% | kinase still bound, per cent of control (PRKD1 (human)): 64% | kinase still bound, per cent of control (HIPK1 (human)): 45% | kinase still bound, per cent of control [2]: 62% | kinase still bound, per cent of control (CDK16 (human)): 94% | kinase still bound, per cent of control (STK33 (human)): 51% | kinase still bound, per cent of control (CLK3 (human)): 100% | kinase still bound, per cent of control (CSNK2A1 (human)): 76% | kinase still bound, per cent of control (TAOK1 (human)): 2.9% | kinase still bound, per cent of control (MYLK (human)): 100% | kinase still bound, per cent of control (NEK2 (human)): 84% | kinase still bound, per cent of control (RIPK2 (human)): 100% | kinase still bound, per cent of control (CDK7 (human)): 100% | kinase still bound, per cent of control (MINK1 (human)): 71% | kinase still bound, per cent of control (SRPK2 (human)): 93% | kinase still bound, per cent of control (MAP2K4 (human)): 93% | kinase still bound, per cent of control (MAP4K2 (human)): 6.3% | kinase still bound, per cent of control (DAPK3 (human)): 90% | kinase still bound, per cent of control [3]: 25% | kinase still bound, per cent of control (PIM3 (human)): 75% | kinase still bound, per cent of control (DMPK (human)): 91% | kinase still bound, per cent of control (RPS6KA6 KD2 (human)): 29% | kinase still bound, per cent of control (STK17A (human)): 62% | kinase still bound, per cent of control (PIP4K2B (human)): 74% | kinase still bound, per cent of control [4]: 88% | kinase still bound, per cent of control (MKNK1 (human)): 100% | kinase still bound, per cent of control (TNK1 (human)): 100% | kinase still bound, per cent of control (MYLK4 (human)): 100% | kinase still bound, per cent of control (BMP2K (human)): 72% | kinase still bound, per cent of control (ACVR2B (human)): 52% | kinase still bound, per cent of control (DCLK3 (human)): 98% | kinase still bound, per cent of control [5]: 92% | kinase still bound, per cent of control [6]: 46% | kinase still bound, per cent of control (CLK2 (human)): 95% | kinase still bound, per cent of control (PIM1 (human)): 46% | kinase still bound, per cent of control [7]: 55% | kinase still bound, per cent of control (CSNK1E (human)): 59% | kinase still bound, per cent of control (PIP5K1A (human)): 47% | kinase still bound, per cent of control [8]: 20%

CN1CCN(c2ccc(C(=O)Nc3ncc4c(n3)N(C)c3ccccc3C(=O)N4C)cc2)CC1
kinase still bound, per cent of control (DAPK2 (human)): 100% | kinase still bound, per cent of control (PHKG2 (human)): 90% | kinase still bound, per cent of control (TGFBR2 (human)): 100% | kinase still bound, per cent of control [1]: 75% | kinase still bound, per cent of control (PRKD1 (human)): 100% | kinase still bound, per cent of control (HIPK1 (human)): 100% | kinase still bound, per cent of control [2]: 86% | kinase still bound, per cent of control (CDK16 (human)): 100% | kinase still bound, per cent of control (STK33 (human)): 100% | kinase still bound, per cent of control (CLK3 (human)): 100% | kinase still bound, per cent of control (CSNK2A1 (human)): 100% | kinase still bound, per cent of control (TAOK1 (human)): 75% | kinase still bound, per cent of control (MYLK (human)): 92% | kinase still bound, per cent of control (NEK2 (human)): 100% | kinase still bound, per cent of control (RIPK2 (human)): 100% | kinase still bound, per cent of control (CDK7 (human)): 74% | kinase still bound, per cent of control (MINK1 (human)): 100% | kinase still bound, per cent of control (SRPK2 (human)): 100% | kinase still bound, per cent of control (MAP2K4 (human)): 86% | kinase still bound, per cent of control (MAP4K2 (human)): 100% | kinase still bound, per cent of control (DAPK3 (human)): 100% | kinase still bound, per cent of control [3]: 78% | kinase still bound, per cent of control (PIM3 (human)): 100% | kinase still bound, per cent of control (DMPK (human)): 100% | kinase still bound, per cent of control (RPS6KA6 KD2 (human)): 100% | kinase still bound, per cent of control (STK17A (human)): 100% | kinase still bound, per cent of control (PIP4K2B (human)): 100% | kinase still bound, per cent of control [4]: 100% | kinase still bound, per cent of control (MKNK1 (human)): 100% | kinase still bound, per cent of control (TNK1 (human)): 92% | kinase still bound, per cent of control (MYLK4 (human)): 100% | kinase still bound, per cent of control (BMP2K (human)): 100% | kinase still bound, per cent of control (ACVR2B (human)): 100% | kinase still bound, per cent of control (DCLK3 (human)): 100% | kinase still bound, per cent of control [5]: 100% | kinase still bound, per cent of control [6]: 100% | kinase still bound, per cent of control (CLK2 (human)): 96% | kinase still bound, per cent of control (PIM1 (human)): 100% | kinase still bound, per cent of control [7]: 89% | kinase still bound, per cent of control (CSNK1E (human)): 89% | kinase still bound, per cent of control (PIP5K1A (human)): 99% | kinase still bound, per cent of control [8]: 79%
